Assay results: publication PMC9939733 (The Journal of Biological Chemistry, 2023)
Where a chain is given by its changes, count along the chain named. Where two headings read alike, the source gives them in different places.

Legend:
R140Q IDH2 [1] = biological target: T1, R140Q IDH2 (Homo sapiens, UniProt P48735, R140Q); assay: Absorbance assay (NADPH consumption), substrate turnover in the absence of 2OG; assay type: biochemical; settings: no 2OG; 6.0 mM test compound, 0.03 μM R140Q IDH2, 50 μM NADPH; 2OG = 100
T1 construct: made in house; host or cells: Sf21 insect cells (cell pellets prepared at Evotec)
T1 sequence (P48735 40-452 R140Q): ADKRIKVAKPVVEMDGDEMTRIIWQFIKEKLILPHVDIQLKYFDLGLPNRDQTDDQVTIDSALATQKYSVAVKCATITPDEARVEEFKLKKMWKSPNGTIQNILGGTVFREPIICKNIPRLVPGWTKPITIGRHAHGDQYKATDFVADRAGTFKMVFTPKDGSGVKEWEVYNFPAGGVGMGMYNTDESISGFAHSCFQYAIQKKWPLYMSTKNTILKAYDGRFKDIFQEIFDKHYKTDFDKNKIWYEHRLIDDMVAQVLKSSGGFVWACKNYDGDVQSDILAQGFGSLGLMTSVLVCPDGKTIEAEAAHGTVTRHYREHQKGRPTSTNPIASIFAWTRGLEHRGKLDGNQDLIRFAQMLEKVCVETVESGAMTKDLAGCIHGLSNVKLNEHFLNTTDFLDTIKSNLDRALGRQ
Method in brief: (§1)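 Compound was added to all wells at once with a multichannel pipettor. Reagent was then dispensed to start the reaction. Every condition was done in four technical replicates.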

R172K IDH2 [2] = biological target: T2, R172K IDH2 (Homo sapiens, UniProt P48735, R172K); assay: as above; assay type: biochemical; settings: no 2OG; 1.0 mM test compound, 0.03 μM R172K IDH2, 50 μM NADPH; 2OG = 100
T2 construct: made in house; host or cells: Sf21 insect cells (cell pellets prepared at Evotec)
T2 sequence (P48735 40-452 R172K): T1 sequence (P48735 40-452 R140Q) with Q101R, R133K
Method in brief: as §1

R140Q IDH2 [3] = biological target: T1, R140Q IDH2; assay: Absorbance assay, variant activity in the presence of equimolar 2OG (inhibition screen); assay type: biochemical; settings: for activity [%] (%-substrate conversion after 20 min incubation): 6.0 mM 2OG and 6.0 mM test compound, 0.03 μM R140Q IDH2, 50 μM NADPH
Method in brief: as §1

R172K IDH2 [4] = biological target: T2, R172K IDH2; assay: as above; assay type: biochemical; settings: for activity [%] (%-substrate conversion after 20 min incubation): 1.0 mM 2OG and 1.0 mM test compound, 0.03 μM R172K IDH2, 50 μM NADPH
Method in brief: as §1

R140Q IDH2 [5] = biological target: T1, R140Q IDH2; assay: Absorbance assay, IC50 determination; assay type: biochemical
Procedure: (§2) The reactivity of WT IDH1/2 and oncogenic IDH1/2 variants was assayed at ambient temperature by continuously monitoring the concentration-dependent change in absorbance ([…]) of NADPH using a PheraStar FS or a CLARIOstar Plus plate reader (BMG Labtech). Enzyme reactions (60 μL total reaction volume) were performed in clear 384-well UV-STAR plates (Greiner Bio-one, #781801). Compounds were dispensed using a CyBio SDW-CW CyBi-Well Simultaneous Pipettor and assay started using a ThermoFisher Multidrop Combi reagent dispenser.
(§3) Final assay concentrations were as follows: 30 nM IDH1/2 variant and 50 μM NADPH. […] Reactions were performed as technical quadruplicates, and all assays were carried out in two independent duplicates. GraphPad Prism (version 5.04) was used for data analysis and to determine the IC50 values.

R172K IDH2 [6] = biological target: T2, R172K IDH2; assay: Absorbance assay, IC50 determination; assay type: biochemical
Procedure: as §2, §3

WT IDH1 [7] = biological target: T3, WT IDH1 (Homo sapiens, UniProt O75874); assay: Absorbance assay, WT activity in the presence of equimolar DL-isocitrate (inhibition); assay type: biochemical; settings: […] isocitrate and […] test compound, 75 μM NADP+, 2.0 nM WT IDH1
T3 construct: made in house; host or cells: Escherichia coli BL21(DE3) pLyS
T3 sequence (O75874 whole entry): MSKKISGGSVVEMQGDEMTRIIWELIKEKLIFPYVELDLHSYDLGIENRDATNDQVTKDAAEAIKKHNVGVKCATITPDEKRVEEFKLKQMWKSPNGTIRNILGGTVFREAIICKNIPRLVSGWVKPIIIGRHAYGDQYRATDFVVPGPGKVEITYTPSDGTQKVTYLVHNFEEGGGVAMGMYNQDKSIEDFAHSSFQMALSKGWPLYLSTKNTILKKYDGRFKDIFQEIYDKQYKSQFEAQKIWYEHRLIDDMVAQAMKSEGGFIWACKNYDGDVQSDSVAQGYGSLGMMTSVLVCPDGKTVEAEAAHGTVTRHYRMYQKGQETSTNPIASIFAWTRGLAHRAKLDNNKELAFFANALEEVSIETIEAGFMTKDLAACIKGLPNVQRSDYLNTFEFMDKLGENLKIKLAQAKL
Method in brief: as §1

WT IDH2 [8] = biological target: T4, WT IDH2 (Homo sapiens, UniProt P48735); assay: as above; assay type: biochemical; settings: […] isocitrate and […] test compound, 75 μM NADP+, 2.0 nM WT IDH2
T4 construct: made in house; host or cells: Sf21 insect cells (cell pellets prepared at Evotec)
T4 sequence (P48735 40-452): T1 sequence (P48735 40-452 R140Q) with Q101R
Method in brief: as §1

R132H IDH1 [9] = biological target: T5, R132H IDH1 (Homo sapiens, UniProt O75874, R132H); assay: Absorbance assay (NADPH consumption), substrate turnover in the absence of 2OG; assay type: biochemical; set-up: made in house; host or cells: Escherichia coli BL21(DE3) pLyS; settings: no 2OG; […] test compound, 0.03 μM R132H IDH1, 50 μM NADPH; 2OG = 100
T5 sequence (O75874 whole entry R132H): as the sequence (O75874 whole entry) above, with R132H counted along it
Method in brief: as §1

R132H IDH1 [10] = biological target: T5, R132H IDH1; assay: Absorbance assay, variant activity in the presence of equimolar 2OG (inhibition screen); assay type: biochemical; set-up: made in house; host or cells: Escherichia coli BL21(DE3) pLyS; settings: […] 2OG and […] test compound, 0.03 μM R132H IDH1, 50 μM NADPH
Method in brief: as §1

R132H IDH1 [11] = biological target: T5, R132H IDH1; assay: Absorbance assay, IC50 determination; assay type: biochemical; set-up: made in house; host or cells: Escherichia coli BL21(DE3) pLyS
Procedure: as §2, §3

WT IDH1 [12] = biological target: T3, WT IDH1; assay: Absorbance assay, substrate activity in the absence of DL-isocitrate; assay type: biochemical; settings: no DL-isocitrate; […] test compound, 75 μM NADP+, 2.0 nM WT IDH1; compared to DL-isocitrate
Method in brief: as §1

WT IDH2 [13] = biological target: T4, WT IDH2; assay: as above; assay type: biochemical; settings: no DL-isocitrate; […] test compound, 75 μM NADP+, 2.0 nM WT IDH2; compared to DL-isocitrate
Method in brief: as §1

FIH = settings: ref [22], [23]; cited from earlier work
AspH = settings: ref [22], [23]; cited from earlier work
[14] = system: glutamic oxaloacetic aminotransferase; set-up: method as in earlier work; settings: ref [66]; cited from earlier work

## O=C(O)CNC(=O)C(=O)O [NOG, N-oxalylglycine, reference compound]
R140Q IDH2 [1]
  activity [%] (%-substrate conversion after 20 min incubation): < 10%
R172K IDH2 [2]
  activity [%] (%-substrate conversion after 20 min incubation): < 10%
R140Q IDH2 [3]
  activity [%] (%-substrate conversion after 20 min incubation): 12 ± 7%
R140Q IDH2 [3]; equimolar 2OG (6.0 mM)
  inhibition: ≥ 90%
R172K IDH2 [4]
  activity [%] (%-substrate conversion after 20 min incubation): 13 ± 4%
R172K IDH2 [4]; equimolar 2OG (1.0 mM)
  inhibition: ≥ 90%
R140Q IDH2 [5]
  IC50: ~621 µM
R172K IDH2 [6]
  IC50: ~161 µM
WT IDH1 [7]
  activity [%] (%-substrate conversion after 20 min incubation): 93 ± 2%
WT IDH2 [8]
  activity [%] (%-substrate conversion after 20 min incubation): 93 ± 1%
R132H IDH1 [9]
  activity [%] (%-substrate conversion after 20 min incubation): < 10%
R132H IDH1 [10]
  activity [%] (%-substrate conversion after 20 min incubation): < 10%
R132H IDH1 [11]
  IC50: ~188 µM

## CC1(C)c2ccccc2-c2ccc(CC(CC(=O)O)C(=O)C(=O)O)cc21 (racemic) [compound 11]
R140Q IDH2 [3]
  activity [%] (%-substrate conversion after 20 min incubation): < 10%
R172K IDH2 [4]
  activity [%] (%-substrate conversion after 20 min incubation): < 10%
R140Q IDH2 [5]; 6.0 mM 2OG, 0.03 μM enzyme, 50 μM NADPH
  IC50: ~1650 µM
R172K IDH2 [6]; 1.0 mM 2OG, 0.03 μM enzyme, 50 μM NADPH
  IC50: ~84 µM
WT IDH1 [7]
  activity [%] (%-substrate conversion after 20 min incubation): 98±2%
WT IDH2 [8]
  activity [%] (%-substrate conversion after 20 min incubation): 96±2%
WT IDH1 [12]
  activity [%] (%-substrate conversion after 20 min incubation): < 10%
WT IDH2 [13]
  activity [%] (%-substrate conversion after 20 min incubation): < 10%
FIH
  inhibition of FIH: potent inhibitor
R132H IDH1 [10]
  activity [%] (%-substrate conversion after 20 min incubation): < 10%
R132H IDH1 [11]; […] 2OG, 0.03 μM enzyme, 50 μM NADPH
  IC50: ~1100 µM

## CC(C)(CC(=O)C(=O)O)C(=O)O [compound 13, 4,4-dimethyl-2OG]
R140Q IDH2 [3]
  activity [%] (%-substrate conversion after 20 min incubation): 117 ± 6%
R172K IDH2 [4]
  activity [%] (%-substrate conversion after 20 min incubation): 106 ± 6%
WT IDH1 [7]
  activity [%] (%-substrate conversion after 20 min incubation): 106±4%
WT IDH2 [8]
  activity [%] (%-substrate conversion after 20 min incubation): 101±7%
WT IDH1 [12]
  activity [%] (%-substrate conversion after 20 min incubation): < 10%
WT IDH2 [13]
  activity [%] (%-substrate conversion after 20 min incubation): < 10%
FIH
  inhibition of FIH: does not inhibit
AspH
  inhibition of AspH: efficient inhibitor
[14]
  substrate efficiency compared with 2OG: less efficient substrate
R132H IDH1 [10]
  activity [%] (%-substrate conversion after 20 min incubation): 118 ± 20%
